In patent publication US20240350643A1, “PROTEIN DEGRADATION AGENT” (SUZHOU KINTOR PHARMACEUTICALS, INC., priority 2021, published 2024):

Key:
[1] = system: HL60 cells; test: Anti-proliferation ability of compounds on HL60 cells (CTG); type: cell-based, human; conditions: Homo sapiens, HL-60, 72 h, 3 days, CellTiter-Glo, read-out: HL60 cells Proliferation inhibitory activity
Description: II. Activity test 2: Anti-proliferation ability of compounds on HL60 cells: 1 Cell plating
HL60 cells in the logarithmic growth phase were counted and plated evenly in a 96-well transparent bottom white plate at 20000 cells per well and 100 μL per well.
A certain amount of the compounds was weighed and diluted with DMSO to a 10 mM stock solution. The culture mediums corresponding to the cells were taken, and the drugs were diluted to the concentration required by the test, shaken gently and mixed evenly. 50 μl of the gradient dilution of the diluted compound was added to each well of the plated cells, and 50 μL of 0.1% DMSO was added to the control group. The plate was shaken gently, mixed evenly and incubated in a cell culture incubator for 3 days.
• 3.1 The CellTiter-GLo™ (CTG) reagent was taken in advance from the −20° C. refrigerator and equilibrated to room temperature in the dark (white bottle+brown bottle, 1:1 mixing evenly into the brown bottle, for later use). • 3.2 The 96-well plate was taken out and inspected under a microscope for growth situation. • 3.3 The bottom of the 96-well plate was tagged with white paper, and then the plate was wrapped with tin foil paper, shaken at 37° C. at 300 r for 10 min and mixed evenly. • 3.4 50 ul of CTG detection reagent was added to each well, Luminescence signal was detected using a microplate reader, and the inhibition rate was calculated. IC50 values of the compounds were calculated by XLfit software to evaluate the proliferation inhibitory activity on HL60 cells.

[2] = target: T1, c-Myc protein (Homo sapiens, UniProt P01106); test: Ability of compounds to degrade c-Myc protein in HL60 cells (ELISA); type: cell-based; conditions: HL-60, 1 μM compound, 24 h, read-out: HL60 cells Protein degradation rate (1 μM)
T1 construct: endogenous in cells; host or cells: HL60 cells
T1 sequence (P01106 whole entry): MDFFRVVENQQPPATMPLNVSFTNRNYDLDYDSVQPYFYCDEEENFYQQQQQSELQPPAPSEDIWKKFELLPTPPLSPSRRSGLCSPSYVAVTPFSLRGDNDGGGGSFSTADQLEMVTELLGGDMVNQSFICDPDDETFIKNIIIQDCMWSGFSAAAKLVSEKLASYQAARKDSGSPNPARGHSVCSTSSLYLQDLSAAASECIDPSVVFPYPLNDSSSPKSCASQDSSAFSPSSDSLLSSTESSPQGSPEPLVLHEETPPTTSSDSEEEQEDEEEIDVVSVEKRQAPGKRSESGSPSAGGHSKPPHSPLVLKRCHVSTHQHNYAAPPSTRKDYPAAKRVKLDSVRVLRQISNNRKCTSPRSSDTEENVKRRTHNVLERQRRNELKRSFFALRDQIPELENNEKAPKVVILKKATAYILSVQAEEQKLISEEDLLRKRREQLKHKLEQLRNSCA
Description: I Activity test 1: Ability of compounds to degrade c-Myc protein in HL60 cells:
HL60 cells in the exponential growth phase were centrifuged, diluted with fresh culture mediums to 6×10^4 cells/100 μL and plated into a 96-well plate at 100 μL per well.
Preparation of test compounds: the compounds were weighed and diluted with DMSO to a 10 mM stock solution for later use. According to test requirements, drugs were diluted with cell culture mediums, with ten-fold dilutions starting from 10 μM, to achieve 3 concentration gradients: 10 μM, 1 μM and 100 NM; and finally, 1 μL of the drugs (DMSO content: 0.01%) were added to each well. For the blank control group, DMSO was also diluted with cell culture mediums, and finally, 1 μL of the control reagent (DMSO content: 0.01%) was added to each well.
3. Effect of drugs on c-Myc in cells as determined by ELISA
After 24 h of drug action, the culture mediums were removed, and the cells were washed once with ice-cold 1× PBS. PBS was removed, and 100 μL of ice-cold 1× Cell Lysis Buffer plus 1 mM phenylmethylsulfonyl fluoride (PMSF) was added to each well. The plate was incubated on ice for 20 min and centrifuged at 4000 RPM at 4° C. for 10 min for later use.
4. Reagent and antibody preparation in ELISA kit 1× wash buffer • 1). 16 mL of ELISA wash buffer concentrate (25×) was diluted with 384 mL of deionized water or distilled water, labeled as 1× Wash Buffer. • 2). The concentrate and 1× Wash Buffer were stored in the refrigerator. The diluted buffer was used within 14 days.
The cell extraction buffer contains 10 mM Tris (pH 7.4), 100 mM NaCl, 1 mM EDTA, 1 mM EGTA, 1 mM NaF, 20 mM Na4P2O7 2 mM Na3VO4. 1% Triton™ ×-100, 10% glycerol, 0.1% SDS and 0.5% deoxycholate. Immediately before use, PMSF (0.3 M stock solution in DMSO) was added to the buffer to a final concentration of 1 mM.
Standard curve configuration: The standard liquid was diluted using glass or plastic tubes. • 1). Huc-Myc (total) standard liquid (Invitrogen, KH02041) was reconstituted with a standard dilution to 1000 pg/mL. Refer to the standard vial label for instructions. The contents were gently swirled or mixed and then allowed to stand for 10 minutes to ensure complete reconstitution, labeled as 1,000 pg/mL human c-Myc. The standard liquid was used within 1 hour after reconstitution. • 2). 250 μL of standard dilution buffers were added to 7 test tubes respectively labeled 500, 250, 125, 62.5, 31.25, 15,63 and 0 pg/mL. • 3). 250 μL of the 1000 pg/ml standard stock solution was added to the first EP tube to a concentration of 500 pg/mL, vortexed and mixed evenly. 250 μL of the resulting mixture was further pipetted and added to the second EP tube to a concentration of 250 pg/mL. Serial dilutions were performed until the sixth EP tube with a concentration of 15.63 pg/mL. Dilution was not performed on the last EP tube. • 4). The remaining reconstituted standard liquid should be discarded, or aliquoted and frozen at −80° C. for further use. Standards can be frozen and thawed only once without losing immunoreactivity.
1× anti-rabbit IgG HRP solution: 1× anti-rabbit IgG HRP solution was prepared within 15 minutes of use. The anti-rabbit IgG HRP (100×) contained 50% viscous glycerol. To ensure accurate dilutions, the following operations were carried out: 1 For each 8-well test strip used in the test, 10 μl, of the anti-rabbit IgG -IRP (100×) solution was pipetted, wherein the pipette tip was wiped with clean absorbent paper to remove excess solutions, and then the solution was dispensed into a test tube containing 1 mL of HRP diluent and mixed thoroughly. 2. The unused anti-rabbit IgG HRP (100×) was placed in the refrigerator for storage.
50 μL of the standard liquid was added to the appropriate wells and not added to the blank control well. Except for the blank control well, 50 μL of Hu c-Myc (total) detection antibody solution was added to each well and mixed by tapping the side face of the plate. […]

| IC50 [1] [nM] | inhibition at 1 µM [2] [%] | SMILES |
| --- | --- | --- |
| 10400 ± 235 | 10 to 30 | O=C1CCC(N2C(=O)c3ccc(C(=O)NC[C@H]4CC[C@H](CNC(=O)Nc5cccc6ncccc56)CC4)cc3C2=O)C(=O)N1 (stereo partly shown) [A50] |
| 336 ± 30 | 60 to 90 | O=C1CCC(N2C(=O)c3ccc(C(=O)NC[C@H]4CC[C@H](CNC(=O)Nc5nccc6ccccc56)CC4)cc3C2=O)C(=O)N1 (stereo partly shown) [A51] |
| 8060 ± 637 | 30 to 60 | O=C1CCC(N2C(=O)c3ccc(C(=O)NC[C@H]4CC[C@H](CNC(=O)Nc5cncc6ccccc56)CC4)cc3C2=O)C(=O)N1 (stereo partly shown) [A52] |
| 1450 ± 280 | 60 to 90 | O=C(Cc1ccccc1)NCc1ccc(CNC(=O)c2ccc3c(c2)C(=O)N(C2CCC(=O)NC2=O)C3=O)cc1 (stereo not shown) [A53] |
| 2330 ± 518 | 60 to 90 | COc1ccccc1CC(=O)NCc1ccc(CNC(=O)c2ccc3c(c2)C(=O)N(C2CCC(=O)NC2=O)C3=O)cc1 (stereo not shown) [A54] |
| 181 ± 32.8 | 60 to 90 | COc1cccc(CC(=O)NCc2ccc(CNC(=O)c3ccc4c(c3)C(=O)N(C3CCC(=O)NC3=O)C4=O)cc2)c1 (stereo not shown) [A55] |
| 666 ± 60.2 | 60 to 90 | COc1cccc(CC(=O)NCc2ccc(CNC(=O)c3ccc4c(c3)C(=O)N(C3CCC(=O)NC3=O)C4=O)cc2)c1OC (stereo not shown) [A56] |
| 214 ± 4.7 | 60 to 90 | O=C(Cc1ccccc1Cl)NCc1ccc(CNC(=O)c2ccc3c(c2)C(=O)N(C2CCC(=O)NC2=O)C3=O)cc1 (stereo not shown) [A57] |
| 285 ± 10.7 | 60 to 90 | O=C(Cc1cccc(Cl)c1)NCc1ccc(CNC(=O)c2ccc3c(c2)C(=O)N(C2CCC(=O)NC2=O)C3=O)cc1 (stereo not shown) [A58] |
| 173 ± 61.3 | 60 to 90 | O=C(Cc1ccc(Cl)cc1)NCc1ccc(CNC(=O)c2ccc3c(c2)C(=O)N(C2CCC(=O)NC2=O)C3=O)cc1 (stereo not shown) [A59] |
| 48.5 ± 6 | 10 to 30 | O=C(Cc1cccc(Cl)c1Cl)NCc1ccc(CNC(=O)c2ccc3c(c2)C(=O)N(C2CCC(=O)NC2=O)C3=O)cc1 (stereo not shown) [A60] |
| 108 ± 6.5 | 60 to 90 | O=C(CCc1cccc(Cl)c1Cl)NCc1ccc(CNC(=O)c2ccc3c(c2)C(=O)N(C2CCC(=O)NC2=O)C3=O)cc1 (stereo not shown) [A61] |
| 320 ± 17.6 | 60 to 90 | O=C(CCc1ccccc1Cl)NCc1ccc(CNC(=O)c2ccc3c(c2)C(=O)N(C2CCC(=O)NC2=O)C3=O)cc1 (stereo not shown) [A62] |
| 702 ± 33.8 | 60 to 90 | COc1ccccc1CCC(=O)NCc1ccc(CNC(=O)c2ccc3c(c2)C(=O)N(C2CCC(=O)NC2=O)C3=O)cc1 (stereo not shown) [A63] |
| 2020 | 60 to 90 | O=C(Cc1cccc(F)c1)NCc1ccc(CNC(=O)c2ccc3c(c2)C(=O)N(C2CCC(=O)NC2=O)C3=O)cc1 (stereo not shown) [A64] |
| 473 ± 93.3 | 60 to 90 | O=C(Cc1ccccc1Br)NCc1ccc(CNC(=O)c2ccc3c(c2)C(=O)N(C2CCC(=O)NC2=O)C3=O)cc1 (stereo not shown) [A65] |
| 1850 ± 1230 | 60 to 90 | N#Cc1ccccc1CC(=O)NCc1ccc(CNC(=O)c2ccc3c(c2)C(=O)N(C2CCC(=O)NC2=O)C3=O)cc1 (stereo not shown) [A66] |
| 1070 ± 617 | 60 to 90 | O=C(Cc1ccccc1C(F)(F)F)NCc1ccc(CNC(=O)c2ccc3c(c2)C(=O)N(C2CCC(=O)NC2=O)C3=O)cc1 (stereo not shown) [A67] |

| IC50 [1] [nM] | inhibition at 1 µM [2] [%] | SMILES |
| --- | --- | --- |
| 1000 ± 480 | 60 to 90 | Cc1ccccc1CC(=O)NCc1ccc(CNC(=O)c2ccc3c(c2)C(=O)N(C2CCC(=O)NC2=O)C3=O)cc1 (stereo not shown) [A68] |
| 710 ± 40.1 | 60 to 90 | CC(C)(C(=O)NCc1ccc(CNC(=O)c2ccc3c(c2)C(=O)N(C2CCC(=O)NC2=O)C3=O)cc1)c1ccccc1 (stereo not shown) [A69] |
| 374 ± 51.1 | 60 to 90 | O=C1CCC(N2C(=O)c3ccc(C(=O)NCc4ccc(CNC(=O)C5(c6ccccc6Br)CC5)cc4)cc3C2=O)C(=O)N1 (stereo not shown) [A70] |
| 24.3 ± 8.5 | 60 to 90 | CN(Cc1ccc(CNC(=O)c2ccc3c(c2)C(=O)N(C2CCC(=O)NC2=O)C3=O)cc1)C(=O)Cc1cccc2ccccc12 (stereo not shown) [A71] |
| 45.6 ± 3 | 60 to 90 | CN(Cc1ccc(CNC(=O)c2ccc3c(c2)C(=O)N(C2CCC(=O)NC2=O)C3=O)cc1)C(=O)Cn1c2ccccc2c2cccnc21 (stereo not shown) [A72] |
| 59.3 ± 5.7 | 60 to 90 | O=C1CCC(N2C(=O)c3ccc(C(=O)NCc4ccc(CNCCc5cccc6ccccc56)cc4)cc3C2=O)C(=O)N1 (stereo not shown) [A73] |
| 5.5 ± 2.3 | 60 to 90 | O=C1CCC(N2C(=O)c3ccc(C(=O)NCc4ccc(CNCCn5c6ccccc6c6cccnc65)cc4)cc3C2=O)C(=O)N1 (stereo not shown) [A74] |
| 2730 ± 614 | 60 to 90 | O=C1CCC(N2C(=O)c3ccc(C(=O)NCc4ccc(COCCc5cccc6ccccc56)cc4)cc3C2=O)C(=O)N1 (stereo not shown) [A75] |
| 432 ± 138 | 60 to 90 | O=C1CCC(N2C(=O)c3ccc(C(=O)NCc4ccc(COCCn5c6ccccc6c6cccnc65)cc4)cc3C2=O)C(=O)N1 (stereo not shown) [A76] |
| 73.4 | 60 to 90 | CS(=O)(=O)N(CCc1cccc2ccccc12)Cc1ccc(CNC(=O)c2ccc3c(c2)C(=O)N(C2CCC(=O)NC2=O)C3=O)cc1 (stereo not shown) [A77] |
| 4.6 | 60 to 90 | CS(=O)(=O)N(CCn1c2ccccc2c2cccnc21)Cc1ccc(CNC(=O)c2ccc3c(c2)C(=O)N(C2CCC(=O)NC2=O)C3=O)cc1 (stereo not shown) [A78] |
| 21.7 | 60 to 90 | CC(=O)N(CCc1cccc2ccccc12)Cc1ccc(CNC(=O)c2ccc3c(c2)C(=O)N(C2CCC(=O)NC2=O)C3=O)cc1 (stereo not shown) [A79] |
| < 3 | 60 to 90 | CC(C)C(=O)N(CCc1cccc2ccccc12)Cc1ccc(CNC(=O)c2ccc3c(c2)C(=O)N(C2CCC(=O)NC2=O)C3=O)cc1 (stereo not shown) [A80] |
| < 3 | 60 to 90 | O=C1CCC(N2C(=O)c3ccc(C(=O)NCc4ccc(CN(CCc5cccc6ccccc56)C(=O)C5CC5)cc4)cc3C2=O)C(=O)N1 (stereo not shown) [A81] |
| < 3 | 60 to 90 | CC(=O)N(CCn1c2ccccc2c2cccnc21)Cc1ccc(CNC(=O)c2ccc3c(c2)C(=O)N(C2CCC(=O)NC2=O)C3=O)cc1 (stereo not shown) [A82] |
| 27.2 ± 7.6 | 30 to 60 | CN(CCc1cccc2ccccc12)Cc1ccc(CNC(=O)c2ccc3c(c2)C(=O)N(C2CCC(=O)NC2=O)C3=O)cc1 (stereo not shown) [A83] |
| 13.1 ± 6.2 | 60 to 90 | CN(CCn1c2ccccc2c2cccnc21)Cc1ccc(CNC(=O)c2ccc3c(c2)C(=O)N(C2CCC(=O)NC2=O)C3=O)cc1 (stereo not shown) [A84] |
